Data as given in ChEMBL document CHEMBL3045618, “Effect of seven new orchard pesticides on Galendromus occidentalis in laboratory studies” (2009).

Columns and labels:
Type in all cases: functional
Galendromus occidentalis [1] = experiment: Toxicity against Metaseiulus occidentalis adults in bean leaf disk infested with two-spotted spider mites assessed as corrected mortality at 4x0.1341 g AI/L treated using worst-case laboratory exposure procedure measured after 72 hr
Galendromus occidentalis [2] = experiment: Ovicidal activity against Metaseiulus occidentalis eggs in bean leaf disk infested with two-spotted spider mites assessed as corrected cumulative mortality at 442 g/L SC formulation treated using worst-case laboratory exposure procedure measured after 144 hr (reference value: 0.7%)
Galendromus occidentalis [3] = experiment: Toxicity against Metaseiulus occidentalis adults in bean leaf disk infested with two-spotted spider mites assessed as corrected mortality at 2x0.1341 g AI/L treated using worst-case laboratory exposure procedure measured after 72 hr
Galendromus occidentalis [4] = experiment: Toxicity against Metaseiulus occidentalis adults in bean leaf disk infested with two-spotted spider mites assessed as average number of eggs laid (fecundity) at 0.1341 g AI/L treated using worst-case laboratory exposure procedure measured after 48 hr (reference value: 2.30/day)
Galendromus occidentalis [5] = experiment: Toxicity against Metaseiulus occidentalis adults in bean leaf disk infested with two-spotted spider mites assessed as repellency at 0.1341 g AI/L treated using worst-case laboratory exposure procedure measured after 48 hr (reference value: 13.6%)
Galendromus occidentalis [6] = experiment: Toxicity against Metaseiulus occidentalis adults in bean leaf disk infested with two-spotted spider mites assessed as average number of eggs laid (fecundity) at 0.1341 g AI/L treated using worst-case laboratory exposure procedure measured after 24 hr (reference value: 2.11/day)
Galendromus occidentalis [7] = experiment: Toxicity against Metaseiulus occidentalis adults in bean leaf disk infested with two-spotted spider mites assessed as corrected mortality at 0.1341 g AI/L treated using worst-case laboratory exposure procedure measured after 72 hr
Galendromus occidentalis [8] = experiment: Toxicity against Metaseiulus occidentalis adults in bean leaf disk infested with two-spotted spider mites assessed as average number of eggs laid (fecundity) at 0.1341 g AI/L treated using worst-case laboratory exposure procedure measured after 72 hr (reference value: 2.23/day)
Galendromus occidentalis [9] = experiment: Toxicity against Metaseiulus occidentalis adults in bean leaf disk infested with two-spotted spider mites assessed as repellency at 0.1341 g AI/L treated using worst-case laboratory exposure procedure measured after 72 hr (reference value: 16.1%)
Galendromus occidentalis [10] = experiment: Toxicity against Metaseiulus occidentalis adults in bean leaf disk infested with two-spotted spider mites assessed as repellency at 0.1341 g AI/L treated using worst-case laboratory exposure procedure measured after 24 hr (reference value: 3.6%)

CC[C@H]1CCC[C@H](O[C@H]2CC[C@H](N(C)C)[C@@H](C)O2)[C@@H](C)C(=O)C2=C[C@@H]3[C@@H](C=C(C)[C@@H]4C[C@@H](O[C@@H]5O[C@@H](C)[C@H](OC)[C@@H](OC)[C@H]5OC)C[C@@H]34)[C@@H]2CC(=O)O1.CC[C@H]1CCC[C@H](O[C@H]2CC[C@H](N(C)C)[C@@H](C)O2)[C@@H](C)C(=O)C2=C[C@@H]3[C@@H](C=C[C@@H]4C[C@@H](O[C@@H]5O[C@@H](C)[C@H](OC)[C@@H](OC)[C@H]5OC)C[C@@H]34)[C@@H]2CC(=O)O1
mortality (Galendromus occidentalis [1]): 0%
mortality at 442000 µg/mL (stock) (Galendromus occidentalis [2]): 6.6%
mortality (Galendromus occidentalis [3]): 0%
Activity (Galendromus occidentalis [4]): 1.59 day⁻¹
Repellency (Galendromus occidentalis [5]): 24.4%
Activity (Galendromus occidentalis [6]): 1.57 day⁻¹
mortality (Galendromus occidentalis [7]): 0.4%
Activity (Galendromus occidentalis [8]): 2.28 day⁻¹
Repellency (Galendromus occidentalis [9]): 28.8%
Repellency (Galendromus occidentalis [10]): 10.9%
